Our source for the IC50 and inhibition values is US9475815B2, “Substituted benzothienyl-pyrrolotriazines and uses thereof” (Bayer Intellectual Property GmbH, priority 2012, dated 2016).

The target in one test is human FGFR-1 (Homo sapiens, UniProt P11362). Put plainly: FGFR-1 high ATP kinase assay (TR-FRET).
The next test addresses human mTOR (Homo sapiens (Human), UniProt P42345). Put plainly: mTOR kinase assay (TR-FRET, for comparative purposes). The test is classed as biochemical. The note with it: read-out: mTOR % inhibition @ 1 μM, 1 μM test compound, 40 μM ATP, mean values. For orientation: TR-FRET usually uses a lanthanide donor and a delayed reading to cut background.
The target of the next test is human FGFR-3 (Homo sapiens (Human), UniProt P22607). Put plainly: FGFR-3 kinase assay (TR-FRET). The test is classed as biochemical. The note with it: 10 μM ATP, 15 min pre-incubation with enzyme.
The test system of test [1] is Human umbilical vein endothelial cells (HUVEC). Put plainly: Inhibition of growth factor-mediated cell proliferation (hFGF-2). It is filed as cell-based. The note with it: Homo sapiens, HUVEC, 72 h, 72 h exposure, hFGF-2 stimulated; from averaged pIC50 values. The method, then: Human umbilical vein endothelial cells (HUVEC) were obtained from Cellsystems (FC-0003) and grown in Vasculife VEGF complete medium (Cellsystems, LL-1020) containing 2% fetal bovine serum (FBS) at 37° C. and 5% CO2. The cells were used for proliferation assays up to passage 7.
The HUVEC cells were harvested using accutase (PAA, L11-007) and seeded in columns 2 to 12 of 96-well plates (Falcon MICROTEST tissue culture plate 96-well flat bottom, BD 353075, or μCLEAR-PLATE, black, 96-well, Greiner Bio-One, No. 655090) at a cell density of 2500 cells/well in 100 μl Vasculife VEGF complete medium with column 1 remaining empty as blank. Cells were allowed to incubate at 37° C. and 5% CO2 for at least 6 h. Then, the cells were washed once with PBS and starved overnight in Vasculife basal medium (Cellsystems, LM-0002) containing heparin, ascorbate and L-glutamine (components of the Vasculife Life Factors Kit, Cellsystems, LL-1020) as well as 0.2% FBS.
After about 18 h, the starving medium was discarded, and the cells were exposed for 72 h to 9 consecutive log or half-log concentrations of test compound in the range of 10 pM to 30 μM and to 5, 10 or 20 ng/ml hFGF-2 (recombinant human FGF basic, R&D Systems, 233-FB) in 100 μl starving medium. 10 mM stock solutions of test compounds in DMSO were diluted to 200× final concentration in DMSO resulting in a final DMSO concentration of 0.5% in all wells. Controls consisted of cells grown in starving medium only and of cells grown in hFGF-2 containing starving medium with 0.5% DMSO. To determine cell proliferation, 5 μl Alamar Blue solution (Biosource, DAL1100) was added to each well (1:20 dilution), and the cells were allowed to incubate for further 4 h at 37° C. and 5% CO2 before measuring fluorescence (ex. 535 nm, em. 595 nm) with a Spectrafluor Plus Tecan plate reader (XFLUOR4 version 4.20). In some experiments, an ATP Determination Kit (BIAFFIN GmbH, LBR-T100) was used according to the manufacturer's instructions. In each experiment, samples were assayed in triplicate, and the standard deviations were determined GraphPad Prism 5 software was used to analyze the data and to obtain IC50 values. All test compounds were assayed 2 to 10 times in independent experiments and similar results were obtained.

pIC50: −log10 of the molar value. Structures can show the parent of a compound that is named as a salt.

human FGFR-3, sequence (P22607 397-806): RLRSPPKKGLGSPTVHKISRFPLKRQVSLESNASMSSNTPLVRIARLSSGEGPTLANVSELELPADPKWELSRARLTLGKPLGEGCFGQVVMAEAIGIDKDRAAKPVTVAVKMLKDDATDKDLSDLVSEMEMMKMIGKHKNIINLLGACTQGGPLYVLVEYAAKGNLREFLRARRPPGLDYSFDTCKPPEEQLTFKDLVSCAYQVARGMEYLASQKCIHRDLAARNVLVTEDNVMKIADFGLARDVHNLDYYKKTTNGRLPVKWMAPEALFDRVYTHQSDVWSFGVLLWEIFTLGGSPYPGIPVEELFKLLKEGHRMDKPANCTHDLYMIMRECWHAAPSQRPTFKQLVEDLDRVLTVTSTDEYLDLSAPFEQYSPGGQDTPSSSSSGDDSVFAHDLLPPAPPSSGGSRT
human mTOR, sequence (P42345 1360-2549): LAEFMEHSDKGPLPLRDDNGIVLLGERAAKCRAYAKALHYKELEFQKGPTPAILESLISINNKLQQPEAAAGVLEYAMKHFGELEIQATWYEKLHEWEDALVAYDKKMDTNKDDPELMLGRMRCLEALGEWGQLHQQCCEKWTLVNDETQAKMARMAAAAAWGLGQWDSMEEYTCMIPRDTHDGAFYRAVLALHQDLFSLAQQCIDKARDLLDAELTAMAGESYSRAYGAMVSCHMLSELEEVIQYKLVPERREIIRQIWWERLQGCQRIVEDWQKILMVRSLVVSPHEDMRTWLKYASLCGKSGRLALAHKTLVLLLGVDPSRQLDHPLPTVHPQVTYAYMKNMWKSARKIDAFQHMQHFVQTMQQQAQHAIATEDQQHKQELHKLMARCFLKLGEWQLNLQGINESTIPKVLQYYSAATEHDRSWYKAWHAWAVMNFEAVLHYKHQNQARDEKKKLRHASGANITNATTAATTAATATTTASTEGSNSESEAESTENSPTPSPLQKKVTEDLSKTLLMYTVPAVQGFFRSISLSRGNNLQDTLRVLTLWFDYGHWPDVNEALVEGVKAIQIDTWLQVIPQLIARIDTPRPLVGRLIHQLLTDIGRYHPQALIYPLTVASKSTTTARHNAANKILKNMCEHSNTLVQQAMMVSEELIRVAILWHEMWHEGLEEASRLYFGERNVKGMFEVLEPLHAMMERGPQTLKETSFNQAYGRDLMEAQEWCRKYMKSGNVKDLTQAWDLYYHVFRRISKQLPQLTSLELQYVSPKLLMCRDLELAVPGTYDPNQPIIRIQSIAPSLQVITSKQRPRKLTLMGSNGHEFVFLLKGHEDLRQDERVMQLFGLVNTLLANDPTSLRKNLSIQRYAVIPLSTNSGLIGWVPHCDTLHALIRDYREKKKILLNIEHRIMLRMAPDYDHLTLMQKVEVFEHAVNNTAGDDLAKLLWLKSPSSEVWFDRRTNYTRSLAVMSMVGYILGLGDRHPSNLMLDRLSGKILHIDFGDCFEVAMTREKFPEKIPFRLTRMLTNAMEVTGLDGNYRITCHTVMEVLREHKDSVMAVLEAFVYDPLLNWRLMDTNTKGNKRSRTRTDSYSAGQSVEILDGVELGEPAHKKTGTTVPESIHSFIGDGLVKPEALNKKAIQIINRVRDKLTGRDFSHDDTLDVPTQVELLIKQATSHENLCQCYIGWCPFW
human FGFR-1, sequence (P11362 22-822 limits assumed): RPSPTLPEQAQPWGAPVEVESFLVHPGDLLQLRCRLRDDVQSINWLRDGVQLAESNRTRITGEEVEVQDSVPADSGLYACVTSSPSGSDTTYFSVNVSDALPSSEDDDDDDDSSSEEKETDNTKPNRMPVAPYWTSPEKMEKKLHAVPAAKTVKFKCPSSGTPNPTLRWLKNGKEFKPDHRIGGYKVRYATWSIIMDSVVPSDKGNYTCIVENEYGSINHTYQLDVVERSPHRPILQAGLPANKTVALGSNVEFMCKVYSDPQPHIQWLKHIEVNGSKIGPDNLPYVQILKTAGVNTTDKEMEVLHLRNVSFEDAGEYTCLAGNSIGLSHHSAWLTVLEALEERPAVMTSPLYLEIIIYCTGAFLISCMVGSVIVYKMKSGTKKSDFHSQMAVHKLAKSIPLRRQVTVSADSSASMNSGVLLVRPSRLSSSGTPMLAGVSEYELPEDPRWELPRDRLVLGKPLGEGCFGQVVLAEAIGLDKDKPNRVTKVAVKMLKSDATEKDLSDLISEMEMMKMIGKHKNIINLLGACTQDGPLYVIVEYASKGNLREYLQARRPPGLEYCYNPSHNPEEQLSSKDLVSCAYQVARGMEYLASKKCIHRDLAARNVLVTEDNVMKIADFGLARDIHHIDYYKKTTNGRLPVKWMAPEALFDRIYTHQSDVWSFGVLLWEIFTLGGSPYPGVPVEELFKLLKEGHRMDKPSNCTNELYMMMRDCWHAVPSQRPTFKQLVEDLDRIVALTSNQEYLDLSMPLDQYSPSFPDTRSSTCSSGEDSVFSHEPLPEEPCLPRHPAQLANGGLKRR

Regarding `COc1cc(C)cc2cc(-c3cc(CN[C@@H]4CCNC4=O)n4ncnc(N)c34)sc12` [Example 6, (3R)-3-({[4-Amino-5-(7-methoxy-5-methyl-1-benzothiophen-2-yl)pyrrolo[2,1-f][1,2,4]triazin-7-yl]methyl}amino)pyrrolidin-2-one dihydrochloride], the figures for the pIC50 (against human FGFR-1; at human FGFR-3; in test [1]) were 7.70, 7.66 and 7.66, respectively. For the same compound, the inhibition at 1 µM on human mTOR was determined as 33.5%.
In the case of `COc1cc(C)cc2cc(-c3cc(CN4CC[C@H](N)C4)n4ncnc(N)c34)sc12` [Example 9, 7-{[(3S)-3-Aminopyrrolidin-1-yl]methyl}-5-(7-methoxy-5-methyl-1-benzothiophen-2-yl)pyrrolo[2,1-f][1,2,4]triazin-4-amine], the pIC50 on human FGFR-1 was 8.33; against human FGFR-3, 8.13; in test [1], 6.84. The inhibition at 1 µM at human mTOR is 24.2%.
The corresponding values for `COc1cc(C)cc2cc(-c3cc(CN4CCOCC4)n4ncnc(N)c34)sc12` [Example 10, 5-(7-Methoxy-5-methyl-1-benzothiophen-2-yl)-7-(morpholin-4-ylmethyl)pyrrolo[2,1-f][1,2,4]-triazin-4-amine] are 7.02, 7.11, 7.68 and 28.1%.
`COc1cc(C)cc2cc(-c3cc(CN[C@H]4CCNC4=O)n4ncnc(N)c34)sc12` [Example 14]: the pIC50 is 7.36 on human FGFR-1, 7.48 against human FGFR-3 and 7.49 in test [1]. Further, the inhibition at 1 µM on human mTOR stood at 30.6%.
In the case of `COc1cc(C)cc2cc(-c3cc(CN4CC[C@H](N(C)C)C4)n4ncnc(N)c34)sc12` [Example 15], the pIC50 against human FGFR-1 was 7.95; against human FGFR-3, 7.64; in test [1], 6.74. Besides, the inhibition at 1 µM on human mTOR turned out to be 25.2%.
As to `CCN[C@H]1CCN(Cc2cc(-c3cc4cc(C)cc(OC)c4s3)c3c(N)ncnn23)C1` [Example 16], the pIC50 against human FGFR-1 is 7.81; at human FGFR-3 it was 7.81; in test [1], 7.10. For the same compound, the inhibition at 1 µM on human mTOR stood at 26.7%.
As to `COc1cc(C)cc2cc(-c3cc(CN4CCNC(C(=O)N(C)C)C4)n4ncnc(N)c34)sc12` (centres unmarked) [Example 17], the pIC50 against human FGFR-1 is 7.56; against human FGFR-3, 7.43; in test [1], 6.82. In addition, the inhibition at 1 µM on human mTOR came to 34.3%.
The corresponding values for `COc1cc(C)cc2cc(-c3cc(CNCC(N)=O)n4ncnc(N)c34)sc12` [Example 18] are 7.58, 8.11, 6.81 and 39.1%.
The corresponding values for `CCN(CC)C1CCN(Cc2cc(-c3cc4cc(C)cc(OC)c4s3)c3c(N)ncnn23)C1` (centres unmarked) [Example 19] are 7.83, 7.57, 6.56 and 25.9%.
The corresponding values for `COc1cc(C)cc2cc(-c3cc(CN4CCNC(=O)CC4)n4ncnc(N)c34)sc12` [Example 20] are 7.26, 7.61, 6.96 and 35.6%.
Turning to `COc1cc(C)cc2cc(-c3cc(CN4CCC(NCC(C)O)C4)n4ncnc(N)c34)sc12` (centres unmarked) [Example 22], the pIC50 against human FGFR-1 was 8.03; at human FGFR-3, 7.38; in test [1], 6.98. Also, the inhibition at 1 µM at human mTOR came to 14%.
For `COc1cc(C)cc2cc(-c3cc(CN4CCC[C@H](N)C4)n4ncnc(N)c34)sc12` [Example 56], the figures for the pIC50 (on human FGFR-1; against human FGFR-3; in test [1]) were 7.76, 7.65 and 6.77, respectively. Further, the inhibition at 1 µM on human mTOR turned out to be 32.1%.
Regarding `COc1cc(C)cc2cc(-c3cc(CN4CCCC(N(C)C)C4)n4ncnc(N)c34)sc12` (centres unmarked) [Example 86], the results for the pIC50 (at human FGFR-1; at human FGFR-3; in test [1]) were 8.34, 8.02 and 7.43, respectively. For the same compound, the inhibition at 1 µM at human mTOR is 33%.
The corresponding values for `COc1cc(C)cc2cc(-c3cc(CN4CCN(C(=O)CO)CC4)n4ncnc(N)c34)sc12` [Example 96, 1-(4-{[4-Amino-5-(7-methoxy-5-methyl-1-benzothiophen-2-yl)pyrrolo[2,1-f][1,2,4]triazin-7-yl]-methyl}piperazin-1-yl)-2-hydroxyethanone] are 7.90, 7.92, 7.14 and 37.9%.
The corresponding values for `COc1cc(C)cc2cc(-c3cc(C(=O)N4CCNCC4)n4ncnc(N)c34)sc12` [Example 99, [4-Amino-5-(7-methoxy-5-methyl-1-benzothiophen-2-yl)pyrrolo[2,1-f][1,2,4]triazin-7-yl]-(piperazin-1-yl)methanone dihydrochloride] are 7.04, 7.18, 6.57 and 9.9%.
The corresponding values for `COc1cc(C)cc2cc(-c3cc(C(=O)N4CCC[C@](C)(N)C4)n4ncnc(N)c34)sc12` [Example 105] are 7.69, 7.59, 6.86 and 17.1%.
`COc1cc(C)cc2cc(-c3cc(CNC(=O)CN)n4ncnc(N)c34)sc12` [Example 106, N-{[4-Amino-5-(7-methoxy-5-methyl-1-benzothiophen-2-yl)pyrrolo[2,1-f][1,2,4]triazin-7-yl]-methyl}glycinamide dihydrochloride]: the pIC50 against human FGFR-1 is 7.60; against human FGFR-3, 7.20; in test [1], 7.70. For the same compound, at human mTOR, the inhibition at 1 µM turned out to be 5.6%.

What is called pIC50 is the negative decadic logarithm of the IC50, by convention in mol/L. A lower pIC50 goes with a large IC50. As usually defined, the inhibition is the percentage by which the read-out fell short of the control.
